The target of test [1] is T1, repeat Tau (K18) (Homo sapiens, UniProt P10636). Put plainly: UV-visible absorbance titration at […] nm. The class given is binding.
The target in test [2] is T1, repeat Tau (K18). Put plainly: ThS fluorescence, inhibition of heparin-induced aggregation. Format: biochemical.

T1 sequence (P10636 561-689 limits assumed): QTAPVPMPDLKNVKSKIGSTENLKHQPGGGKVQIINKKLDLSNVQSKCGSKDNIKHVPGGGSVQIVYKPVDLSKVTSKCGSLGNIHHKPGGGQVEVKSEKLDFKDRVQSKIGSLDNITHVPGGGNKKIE

In general, Kd refers to a measure of binding affinity in units of concentration. Read a high Kd as weaker binding. For orientation: IC50 means the concentration that inhibits the measured activity by half. Higher therefore signals weaker potency. Compound `O=c1cc(-c2ccccc2)oc2cc(O)c(O)c(O)c12` [Baicalein] registered a Kd on repeat Tau (K18) [1] of 3.5 µM. This compound gave an IC50 at repeat Tau (K18) [2] of 35.8 µM.
